Measured values reported in patent publication US12084472B2 (Ardelyx, Inc., priority 2015, dated 2024).

target: T1, human TGR5 (Homo sapiens, UniProt Q8TDU6); experiment: Cell-based TGR5 assay (cAMP generation, HTRF); details: HEK293 cells stably transfected with human TGR5; cAMP by HTRF; 30 minutes at 37° C.; read-out: pEC50 Human TGR5 (converted)
T1 construct: expressed in transfected cells; host or cells: HEK293
T1 sequence (Q8TDU6 1-330): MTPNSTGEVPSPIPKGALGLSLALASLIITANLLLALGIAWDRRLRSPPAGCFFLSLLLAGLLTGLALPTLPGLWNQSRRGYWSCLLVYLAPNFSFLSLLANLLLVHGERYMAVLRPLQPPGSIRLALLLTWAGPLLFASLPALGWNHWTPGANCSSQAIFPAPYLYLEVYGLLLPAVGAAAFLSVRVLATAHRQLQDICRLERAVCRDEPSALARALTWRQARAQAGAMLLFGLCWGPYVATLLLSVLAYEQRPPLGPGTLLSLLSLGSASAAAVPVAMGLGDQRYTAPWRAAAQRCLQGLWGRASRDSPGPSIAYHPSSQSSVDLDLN
Procedure, shortened: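 Read-out was HTRF detection of cAMP, converted to concentration via a standard curve and fitted (3-parameter logistic) for pEC50 and maximal response. Agonist stimulation used HEK293 cells stably transfected with human TGR5, incubated 30 min at 37° C in IBMX-containing buffer at 0.05 nM to 10 μM compound.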

**Q.** With CSc1cnc(CNC2(c3cnccc3-c3ccccc3OC3CC3)CC2)c(C)c1 [Compound I-39, 1-[4-(2-cyclopropoxyphenyl)pyridin-3-yl]-N-{[3-methyl-5-(methylsulfanyl)pyridin-2-yl]methyl}cyclopropan-1-amine] as the compound, how does the EC50 read?
**A.** 0.126 to 1 µM

**Q.** O=C(CCCSc1ccc(Cl)c(COC2(c3cnccc3-c3ccccc3OC3CC3)CC2)c1)N(CCCO)C[C@H](O)[C@@H](O)[C@H](O)[C@H](O)CO [Compound I-661, 4-{[4-chloro-3-({1-[4-(2-cyclopropoxyphenyl)pyridin-3-yl]cyclopropoxy}methyl)phenyl]sulfanyl}-N-(3-hydroxypropyl)-N-[(2S,3R,4R,5R)-2,3,4,5,6-pentahydroxyhexyl]butanamide] was tested. Which EC50 did it give?
**A.** < 0.1 µM

**Q.** C[C@H](CCCC(=O)N(C)C[C@H](O)[C@@H](O)[C@H](O)[C@H](O)CO)c1ccc(Cl)c(CNC2(c3cnccc3-c3ccccc3OC3CC3)CC2)c1 (single isomer, unassigned) [Compound I-326] was tested. Which EC50 did it give?
**A.** < 0.1 µM

**Q.** CCN(C[C@H](O)[C@@H](O)[C@H](O)[C@H](O)CO)C(=O)CCCC(C)c1ccc(C)c(COC2(c3cnccc3-c3ccccc3OC3CC3)CC2)c1 (stereo partly drawn) [Compound I-375, 5-[3-({1-[4-(2-cyclopropoxyphenyl)pyridin-3-yl]cyclopropoxy}methyl)-4-methylphenyl]-N-ethyl-N-[(2S,3R,4R,5R)-2,3,4,5,6-pentahydroxyhexyl]hexanamide] was tested. Which EC50 did it give?
**A.** < 0.1 µM

**Q.** With CC(C)N(CCCCNC(=O)N[C@@H](CO)[C@@H](O)[C@H](O)[C@H](O)CO)S(=O)(=O)c1ccc(Cl)c(COC2(c3cnccc3-c3ccccc3OC3CC3)CCC2)c1 [Compound I-746, 4-chloro-3-((1-(4-(2-cyclopropoxyphenyl)pyridin-3-yl)cyclobutoxy)methyl)-N-isopropyl-N-(4-(3-((2S,3R,4S,5R)-1,3,4,5,6-pentahydroxyhexan-2-yl)ureido)butyl)benzenesulfonamide] as the compound, how does the EC50 read?
**A.** < 0.1 µM

**Q.** How did the EC50 turn out when Fc1ccc(-c2ccncc2C2(NCc3cc(Cl)ccc3Cl)CC2)c(OC2CC2)c1 [Compound I-18, 1-[4-(2-cyclopropoxy-4-fluorophenyl)pyridin-3-yl]-N-[(2,5-dichlorophenyl)methyl]cyclopropan-1-amine] was run?
**A.** < 0.1 µM

**Q.** O=C(NCCOCCS(=O)(=O)c1ccc(Cl)c(COC2(c3cnccc3-c3ccccc3OC3CC3)CC2)c1)N[C@@H](CO)[C@@H](O)[C@H](O)[C@H](O)CO [Compound I-641, 1-(2-{2-[4-chloro-3-({1-[4-(2-cyclopropoxyphenyl)pyridin-3-yl]cyclopropoxy}methyl)benzenesulfonyl]ethoxy}ethyl)-3-[(2S,3R,4S,5R)-1,3,4,5,6-pentahydroxyhexan-2-yl]urea] was tested. Which EC50 did it give?
**A.** < 0.1 µM

**Q.** For C[C@@H](CCCC(=O)N(C)C[C@H](O)[C@@H](O)[C@H](O)[C@H](O)CO)c1ccc(Cl)c(CNC2(c3cnccc3-c3ccccc3OC3CC3)CC2)c1 (single isomer, unassigned) [Compound I-325], which EC50 is on record?
**A.** < 0.1 µM

**Q.** With CN(CCCCNC(=O)NC[C@H](O)[C@@H](O)[C@H](O)[C@H](O)CO)S(=O)(=O)c1ccc(Cl)c(COC2(c3cnccc3-c3ccccc3OC3CC3)CC2)c1 (stereo in doubt) [Compound I-402, 1-{4-[N-methyl4-chloro-3-({1-[4-(2-cyclopropoxyphenyl)pyridin-3-yl]cyclopropoxy}methyl)benzenesulfonamido]butyl}-3-[(2S,3R,4R,5R)-2,3,4,5,6-pentahydroxyhexyl]urea] as the compound, how does the EC50 read?
**A.** < 0.1 µM

**Q.** For COCCCN(CCCC(C)c1ccc(C)c(CNC2(c3cnccc3-c3ccccc3OC3CC3)CC2)c1)C(=O)[C@@H](O)[C@@H](O)[C@H](O)[C@@H](O)CO (stereo partly drawn) [Compound I-303, (2S,3S,4R,5S)-N-(4-{3-[({1-[4-(2-cyclopropoxyphenyl)pyridin-3-yl]cyclopropyl}amino)methyl]-4-methylphenyl}pentyl)-2,3,4,5,6-pentahydroxy-N-(3-methoxypropyl)hexanamide], which EC50 is on record?
**A.** < 0.1 µM

**Q.** Which EC50 does the source give for Cc1cc(COC2(c3cnccc3-c3ccccc3OC3CC3)CC2)c(Cl)cc1CCCCNC(=O)N[C@@H](C)C(=O)N[C@@H](C)C(=O)N[C@@H](C)C(=O)O [Compound I-112, (2S)-2-[(2S)-2-[(2S)-2-[({4-[5-chloro-4-({1-[4-(2-cyclopropoxyphenyl)pyridin-3-yl]cyclopropoxy}methyl)-2-methylphenyl]butyl}carbamoyl)amino]propanamido]propanamido]propanoic acid] here?
**A.** < 0.1 µM

**Q.** Cc1ccc(C(C)CCCC(=O)N(CCO)C[C@H](O)[C@@H](O)[C@H](O)[C@H](O)CO)cc1COC1(c2cnccc2-c2ccccc2OC2CC2)CC1 (stereo partly drawn) [Compound I-376, 5-[3-({1-[4-(2-cyclopropoxyphenyl)pyridin-3-yl]cyclopropoxy}methyl)-4-methylphenyl]-N-(2-hydroxyethyl)-N-[(2S,3R,4R,5R)-2,3,4,5,6-pentahydroxyhexyl]hexanamide] was tested. Which EC50 did it give?
**A.** < 0.1 µM

**Q.** CC(=O)NCCN(CCCCSc1ccc(Cl)c(CNC2(c3cnccc3-c3ccccc3OC3CC3)CC2)c1)C(=O)[C@@H](O)[C@@H](O)[C@H](O)[C@@H](O)CO [Compound I-563, (2S,3S,4R,5S)-N-[4-({4-chloro-3-[({1-[4-(2-cyclopropoxyphenyl)pyridin-3-yl]cyclopropyl}amino)methyl]phenyl}sulfanyl)butyl]-N-(2-acetamidoethyl)-2,3,4,5,6-pentahydroxyhexanamide] was tested. Which EC50 did it give?
**A.** 0.126 to 1 µM

**Q.** How did the EC50 turn out when CC(=O)NCCCCN(CCCC(C)c1ccc(Cl)c(CNC2(c3cnccc3-c3ccccc3OC3CC3)CC2)c1)C(=O)[C@@H](O)[C@@H](O)[C@H](O)[C@@H](O)CO (stereo partly drawn) [Compound I-290, (2S,3S,4R,5S)-N-(4-{4-chloro-3-[({1-[4-(2-cyclopropoxyphenyl)pyridin-3-yl]cyclopropyl}amino)methyl]phenyl}pentyl)-N-(4-acetamidobutyl)-2,3,4,5,6-pentahydroxyhexanamide] was run?
**A.** < 0.1 µM

**Q.** Cc1ccc(CCCCC(=O)N(C)C[C@H](O)[C@@H](O)[C@H](O)[C@H](O)CO)cc1CNC1(c2cnccc2-c2ccccc2OC2CC2)CC1 (stereo in doubt) [Compound I-238, 5-{3-[({1-[4-(2-cyclopropoxyphenyl)pyridin-3-yl]cyclopropyl}amino)methyl]-4-methylphenyl}-N-methyl-N-[(2S,3R,4R,5R)-2,3,4,5,6-pentahydroxyhexyl]pentanamide] was tested. Which EC50 did it give?
**A.** 0.126 to 1 µM

**Q.** CC(=O)N(CCCSc1ccc(Cl)c(CNC2(c3cnccc3-c3ccccc3OC3CC3)CC2)c1)C[C@H](O)[C@@H](O)[C@H](O)[C@H](O)CO [Compound I-502, N-[3-({4-chloro-3-[({1-[4-(2-cyclopropoxyphenyl)pyridin-3-yl]cyclopropyl}amino)methyl]phenyl}sulfanyl)propyl]-N-[(2S,3R,4R,5R)-2,3,4,5,6-pentahydroxyhexyl]acetamide] was tested. Which EC50 did it give?
**A.** < 0.1 µM

**Q.** With O=C(CCCCc1cc(Cl)c(COC2(c3cnccc3-c3ccccc3OC3CC3)CC2)cc1Cl)NCC1O[C@H](CO)[C@@H](O)[C@H](O)[C@H]1O (stereo partly drawn) [Compound I-104, 5-[2,5-dichloro-4-({1-[4-(2-cyclopropoxyphenyl)pyridin-3-yl]cyclopropoxy}methyl)phenyl]-N-{[(3R,4R,5S,6R)-3,4,5-trihydroxy-6-(hydroxymethyl)oxan-2-yl]methyl}pentanamide] as the compound, how does the EC50 read?
**A.** < 0.1 µM

**Q.** How did the EC50 turn out when Cc1ccc(SCCCCN(CCOCCO)C(=O)[C@@H](O)[C@@H](O)[C@H](O)[C@@H](O)CO)cc1COC1(c2cnccc2-c2ccccc2OC2CC2)CC1 [Compound I-551, (2S,3S,4R,5S)-N-(4-{[3-({1-[4-(2-cyclopropoxyphenyl)pyridin-3-yl]cyclopropoxy}methyl)-4-methylphenyl]sulfanyl}butyl)-2,3,4,5,6-pentahydroxy-N-[2-(2-hydroxyethoxy)ethyl]hexanamide] was run?
**A.** 0.126 to 1 µM

**Q.** How did the EC50 turn out when C[C@H](CCCCN)c1ccc(Cl)c(COC2(c3cnccc3-c3ccccc3OC3CC3)CC2)c1 (single isomer, unassigned) [Compound I-245] was run?
**A.** 0.126 to 1 µM

**Q.** For CC(=O)NCCCN(CCCSc1ccc(Cl)c(COC2(c3cnccc3-c3ccccc3OC3CC3)CC2)c1)C(=O)[C@@H](O)[C@@H](O)[C@H](O)[C@@H](O)CO [Compound I-594, (2S,3S,4R,5S)-N-(3-{[4-chloro-3-({1-[4-(2-cyclopropoxyphenyl)pyridin-3-yl]cyclopropoxy}methyl)phenyl]sulfanyl}propyl)-N-(3-acetamidopropyl)-2,3,4,5,6-pentahydroxyhexanamide], which EC50 is on record?
**A.** < 0.1 µM

**Q.** For CNC(=O)CN(C[C@H](O)[C@@H](O)[C@H](O)[C@H](O)CO)C(=O)CCCC(C)c1ccc(C)c(CNC2(c3cnccc3-c3ccccc3OC3CC3)CC2)c1 (stereo partly drawn) [Compound I-360, 5-{3-[({1-[4-(2-cyclopropoxyphenyl)pyridin-3-yl]cyclopropyl}amino)methyl]-4-methylphenyl}-N-[(methylcarbamoyl)methyl]-N-[(2S,3R,4R,5R)-2,3,4,5,6-pentahydroxyhexyl]hexanamide], which EC50 is on record?
**A.** < 0.1 µM

**Q.** O=C([C@@H](O)[C@@H](O)[C@H](O)[C@@H](O)CO)N(CCCCCO)CCCCCSc1ccc(Cl)c(COC2(c3cnccc3-c3ccccc3OC3CC3)CC2)c1 [Compound I-606, (2S,3S,4R,5S)-N-(5-{[4-chloro-3-({1-[4-(2-cyclopropoxyphenyl)pyridin-3-yl]cyclopropoxy}methyl)phenyl]sulfanyl}pentyl)-2,3,4,5,6-pentahydroxy-N-(5-hydroxypentyl)hexanamide] was tested. Which EC50 did it give?
**A.** < 0.1 µM
